Results: patent publication US6808873B2, “Screening assays using intramitochondrial calcium” (MitoKor, Inc., priority 2000, dated 2004)

Key:
Ca^2+ uniporter [1] = target: T1, Ca^2+ uniporter (Homo sapiens, UniProt Q8NE86); assay: High-throughput uniporter assay of different compounds, permeabilized HepG2 cells with and without thapsigargin, FLIPR II; type: cell-based
T1 construct: The effects of several intracellular Ca^2+ modulating agents (ICMAs) on permeabilized HepG2 cells were examined; endogenous in cells; host or cells: HepG2 (ATCC HB-8065), digitonin-permeabilized, in suspension
T1 sequence (Q8NE86 51-351): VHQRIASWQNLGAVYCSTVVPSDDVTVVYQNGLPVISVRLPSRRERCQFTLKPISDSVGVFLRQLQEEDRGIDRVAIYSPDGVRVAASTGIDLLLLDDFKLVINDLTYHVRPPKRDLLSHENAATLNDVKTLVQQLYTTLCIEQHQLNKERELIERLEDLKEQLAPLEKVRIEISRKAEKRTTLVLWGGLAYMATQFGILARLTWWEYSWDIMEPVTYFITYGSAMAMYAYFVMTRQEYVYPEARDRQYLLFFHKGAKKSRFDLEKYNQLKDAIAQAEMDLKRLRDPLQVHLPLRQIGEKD
T1 sequence (Q9H4I9 48-107 partner limits assumed): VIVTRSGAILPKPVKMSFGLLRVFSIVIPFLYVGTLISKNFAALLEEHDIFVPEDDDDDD
Description: The high-throughput uniporter assay protocol, carried out as described above for suspension cells, was used to determine the effect of different compounds on mitochondria and extramitochondrial Ca^2+ concentrations in the presence or absence of the Ca^2+ uptake inhibitor of the endoplasmic reticulum, thapsigargin (Calbiochem). Agents examined in this assay include calcium channel inhibitors, pro- and anti-oxidants, mitochondrial inhibitors and uncouplers, and the Ca—UP inhibitor Ru360. On the day of the assay, solutions of the respiratory/cell permeabilizing media containing digitonin with thapsigarin (MM-TD) and without thapsigarin (MM-D) were prepared as previously described. Calcium chloride was added to each to a final concentration of 6 micromolar Ca^2+, resulting in MM-TD, 6 uM Ca and MM-D, 6 uM Ca. A MM solution was prepared with a 10× Ca^2+ concentration of 200 micromolar for the second Ca^2+ pulse. The Ca^2+-uniporter inhibitor Ru360 was prepared at a 10× concentration of 100 microliters in MM. Ten times (10×) stock solutions of the other agents were prepared for the assay by the addition of the compounds to final concentrations of 10 micromolar into MM. […] Controls include water and 10% DMSO (Sigma) in MM.
Cells of the HepG2 cell line (hepatocellular carcinoma, ATCC HB-8065) were trypsinized from near-confluent flasks in growth media (Eagle's MEM with non-essential amino acids, sodium pyruvate and Earle's BSS, 90%; FBS 10%). Cells were centrifuged, growth media was aspirated, and cells were resuspended to a concentration of 1×10^7 cells per milliliter in MM-TD, 6 uM Ca, or MM-D, 6 uM Ca. One hundred (100) microliters of the cell suspension (about 1×10^6 cells) were delivered to wells of a microtiter plate. The plate was placed in a FLIPR™ II (used in 96-well format) warmed to 37° C. An 11.1 microliter aliquot of the 10× stock solutions with water or DMSO (controls), Ru360 (Ca—UP inhibitor), or the test compounds, were dispensed into designated wells such that the assay concentration of DMSO is 0.1%, Ru360 is 10 micromolar, and each of the test compounds are at 1 micromolar concentrations. After an additional three minutes, a second addition of 12.3 microliters of the 10× CaCl2 (200 micromolar Ca^2+), was dispensed into the wells of the microtiter plate resulting in assay concentrations of 20 micromolar Ca^2 (Extramitochondrial Ca^2+ bound to the calcium indicator dye was monitored throughout and profiles of each assay; the results are presented in FIG. 12, with all thapsigargin minus (thaps−) assays in wells corresponding to columns 1-6 and thapsigargin plus (thaps+) assays in wells corresponding to columns 7-12.

[2] = tested on: mitochondria permeability transition (MPT); assay: MPT modulation assay, digitonin-permeabilized MixCon cells, Ca-Green-5N, cuvette spectrofluorimeter; type: cell-based
Protocol: An assay was performed in order to observe the transition induction effect on MPT by the MPT effector, diamide (a thiol oxidizing agent and pro-oxidant). The assay was performed in a digitonin-permeabilized cell line of mixed cybrids, MixCon in the presence of Ca^2+ and Ca-Green-5N and monitored in an LS50B Perkin Elmer Spectrofluorimeter, but is adaptable to the FLIPR system. Initially, ethacrynic acid was added to the MixCon cells in Dulbecco's modified Eagle's medium and 10% FBS, to a final concentration of 100 micromolar and preincubated for 5 minutes to remove the ability of cells to deal with oxidative stress making cells susceptible to the pro-oxidant. The cells were then centrifuged, growth media was aspirated, and cells resuspended, at 1.1×10^7 cells/milliliter, in 2 milliliters of respiratory media containing digitonin (MM-D) whereupon the digitonin (dig) permeabilizes the cells. The suspension was then transferred to a spectrofluorimetric cuvette. The cuvette was placed in the fluorimeter and 0.3 microliters of a 254 millimolar CaCl2 stock was added to the cuvette (final CaCl2 concentration of 40 micromolar). After approximately three minutes diamide was added to the cuvette to a final concentration of 500 micromolar].

Ca^2+ uniporter [3] = target: T1, Ca^2+ uniporter; assay: Ca^2+ uniporter assay, digitonin-permeabilized suspended HepG2 cells, Calcium-Green-5N on FLIPR, ICMA added between two Ca^2+ pulses; type: cell-based; conditions: 5 micrograms/milliliter oligomycin, 2 micromolar rotenone, 1 micromolar FCCP; for mitochondrial uptake of the second Ca^2+ pulse: second Ca^2+ pulse at about t=6 min, 1 micromolar RU360
Protocol: A master mix solution (MM Solution) was prepared by the addition of glutamate and malate to final concentrations of 5 millimolar each, MgCl2 to a final concentration of 1 millimolar, EGTA to a final concentrations of 0 to 8 micromolar, and Calcium-Green-5N to a final concentration of 0.1 to 1.0 micromolar, to a basic KCl-based respiratory media (“BReM”) that is described in Table 3. […] The hexapotassiun salt Calcium-Green-5N (Molecular Probes, Eugene, Oreg.) in the MM Solution is a fluorescent dye that has low binding affinity to Ca^2+.
Thapsigargin (Calbiochem, San Diego, Calif.), a Ca^2+ uptake inhibitor of the endoplasmic reticulum (ER), was added to the MM Solution to a final concentration of 1 micromolar to yield a solution designated “MM-T” (i.e., Master Mix with Thapsigargin).
The cell membrane permeabilizing agent digitonin (Sigma, St. Louis, Mo.) was added to MM-T to a final concentration of from about 0.007% to about 0.03% to yield a solution referred to as “MM-TD” (i.e., Master Mix with Thapsigargin and digitonin. CaCl2 was added to MM-T to provide a solution with a determined final concentration of Ca^2+ for the determination of intracellular Ca^2+ flux.
The effects of several intracellular Ca^2+ modulating agents (ICMAs) on permeabilized HepG2 cells were examined as follows. The mitochondrial respiratory inhibitors oligomycin (Calbiochem, San Diego, Calif.) and rotenone (Calbiochem) were added to MM-T to final concentrations of 50 micrograms/milliliter and 20 micromolar, respectively. The uncoupler FCCP was similarly added to MM-T to a 10× concentration (10 micromolar) to yield a stock solution of FCCP, MM-TF (i.e., Master Mix with Thapsigargin and FCCP). The ICMA Ru360, which blocks Ca^2+ uptake into the mitochondria by the calcium uniporter, was added to MM-T to a concentration of 100 micromolar to yield MM-T360 (i.e., Master Mix with Thapsigragin and Ru360). CaCl2 was added to MM-T to yield a 10× solution of CaCl2 (120 micromolar) in MM-T.
HepG2 cells were cultured in Eagle's minimal essential medium (MEM) with non-essential amino acids, sodium pyruvate and Earle's balanced salt solution (BSS), 90%; fetal bovine serum (FBS), 10%. Cells were centrifuged (500×g) and the growth media was aspirated from the pellet. The HepG2 cells were resuspended in MM-TD at a concentration of 1×10^7 cells/milliliter, and 100 microliters of the resuspended permeabilized cells were dispensed into wells of a 96-well Costar 3603 microplate. The plate was placed into a FLIPR™ prewarmed to 37° C. MM-T, 120 micromolar Ca^2+, was dispensed into the cell-containing wells at a volume of 11.1 microliters, yielding a final assay concentration of 12 micromolar Ca^2+. The addition of Ca^2+ at this stage of the assay is referred to as the first calcium pulse and the time at which Ca^2+ is added is designated t=0.
After about three minutes (i.e., at about t=3 min.), 12.3 microliters of one of the ICMA solutions were dispensed into wells containing permeabilized cells to yield final assay concentrations of 5 micrograms/milliliter oligomycin, 2 micromolar rotenone, 1 micromolar FCCP, 1 micromolar RU360, and MM-T (no ICMA).
Cells were exposed to a second calcium pulse by the addition of 13.7 microliters of MM-T, 120 micromolar Ca^2+, to the cells after an additional 3 minutes (i.e., at about t=6 min.).

[4] = tested on: mitochondria permeability transition (MPT); assay: MPT modulation assay, digitonin-permeabilized 293T cells, cuvette spectrofluorimeter; type: cell-based, human
Protocol: The transition induction effect on MPT by the MPT effector, diamide (a thiol oxidizing agent and pro-oxidant) were performed with a second cell line, 293T. The 293T cells were suspended in 2 milliliters of growth media, DMEN and 10% FBS, with 100 micromolar of ethacrynic acid (1×10^7 cells/ml) and preincubated for 14 minutes to remove ability of cells to deal with oxidative stress making them susceptible to the pro-oxidant. The cells were centrifuged, media aspirated, resuspended in 2 milliliters of respiratory media containing digitonin (MM-D), and transferred into a cuvette. The digitonin (dig) in MM-TD permeabilizes the cells. The cuvette was placed in a LS50B Perkin Elmer Spectrofluorimeter and 40 micromolar CaCl2 in H2O was added into the suspension. After approximately three minutes 500 micromolar diamide was dispensed into the cuvette.

Ca^2+ uniporter [5] = tested on: Ca^2+ uniporter
Protocol: On the day of the assay a master mix solution (MM) was prepared by the addition of glutamate and malate from the stock solutions to final concentrations of 5 millimolar each, 1 millimolar MgCl2, and 0.5 micromolar Calcium-Green-5N (Molecular Probes, Eugene, Oreg.). The hexapotassium salt Calcium-Green-5N (Molecular Probes, Eugene, Oreg.) in the MM is a fluorescent dye that has low binding affinity to Ca^2+. The cell membrane permeabilizing agent digitonin (Sigma, St. Louis, Mo.) was added to MM to a final concentration of 0.007% to yield a solution designated MM-D. To this mixture CaCl2 was added to a final concentration of 6 micromolar Ca^2+ to yield a solution designated MM-D, 6 uM Ca. A 10× Ca^2+ stock solution was prepared by addition of CaCl2 to a final concentration of 200 micromolar in MM (no digitonin), and 10× solutions of FCCP were also prepared in MM to give concentrations of 0, 0.2, 0.4, 0.6, 0.8, 1.0, 2.0, 5.0, and 10.0 micromolar.
HepG2 cells (human hepatocellular carcinoma, ATCC HB-8065) were trypsinized from near-confluent flasks in growth media, Eagle's minimum essential medium (MEM) with non-essential amino acids, sodium pyruvate and Earle's balanced salt solution (BSS), 90%; FBS 10%. Cells were centrifuged, growth media aspirated, and resuspended in the permeabilizing solution MM-D, 6 uM CaCl2. The concentration of cells was adjusted to 1×10^7 cells per milliliter in solution. One hundred (100) microliters of the cell suspension (1×10^6 cells) were delivered to the 96 well microtiter plate. […]
A pulse of 12.3 microliters of the 10× stock CaCl2 solution was introduced into each of the wells of the microtiter plates after about four minutes. Emissions resulting from the binding of extramitochondrial Ca^2+ to the calcium indicator dye were monitored throughout the assay. […]
The average of the changes of fluorescence for the assays (1-12) versus time course where FCCP was added at one minute, and calcium was pulsed into the assay media at approximately 4 minutes, were determined and graphed as a function of time (FIG. 11).

[6] = tested on: mitochondria permeability transition (MPT); assay: High-throughput MPT modulation assay, permeabilized HepG2 cells with and without thapsigargin, FLIPR 384; type: cell-based, human; conditions: compounds 1 micromolar
Protocol: HepG2 cells (hepatocellular carcinoma, ATCC HB-8065), in suspension, were used to determine the effect of these compounds on mitochondria Ca^2+ sequestration by monitoring extramitochondrial Ca^2+ concentrations in the presence or absence of the Ca^2+ uptake inhibitor of the endoplasmic reticulum, thapsigargin (Calbiochem, San Diego, Calif.). On the day of the assay solutions of the respiratory media containing digitonin with thapsigarin (MM-TD) and without thapsigarin (MM-D) were prepared as previously described. Calcium chloride was added to each to a final concentration of 6 micromolar Ca^2+, to yield MM-TD, 6 uM Ca, and MM-D, 6 uM Ca. Ten times (10×) stock solutions were prepared for the assay by the addition of each of the compounds to final concentrations of 10 micromolar in MM. Ten times (10×) solutions of CaCl2 was prepared in MM or MM-T to concentrations of 200 micromolar, for the second addition.
The HepG2 cells were trypsinized from near-confluent flasks in growth media (Eagle's MEM with non-essential amino acids, sodium pyruvate and Earle's BSS, 90%; FBS 10%). Cells were centrifuged, media was aspirated, and the cells were resuspended to 1×10^7 cells per milliliter in MM-TD, 6 uM Ca and MM-D, 6 uM Ca, whereby Ca^2+ and the indicator dye enter the cells and Ca^2+ becomes sequestered in mitochondria. One hundred (100) microliters of the cell suspension was delivered to each well of a microtiter plate. The plate was placed in the FLIPR 384 warmed to 37° C. An 11.1 microliter volume of the 10× stock solutions with the test compounds were dispensed into designated wells such that the assay concentration are 1 micromolar. After a three minute interval, a Ca^2+ pulse of 20 micromolar was delivered by adding 12.3 microliters of the 10× CaCl2 solutions containing 200 micromolar Ca^2+.

With N#CC(C#N)=NNc1cccc(Cl)c1 [CCCP, carbonyl cyanide m-chlorophenyl-hydrazone] the “fluorescence signal over the 3 minutes after compound addition (retention of the accumulated 6 micromolar Ca^2+)” value (shortened to “fluorescence signal over the 3 minutes”) (Ca^2+ uniporter [1]; test compounds 1 micromolar) was “release Ca^2+ from mitochondria” and the “uniporter activity profile after the 20 micromolar Ca^2+ pulse” value (“uniporter activity profile” below) (Ca^2+ uniporter [1]; test compounds 1 micromolar) was “prevent Ca^2+ uptake and retention by the mitochondria”.
With N#CC(C#N)=NNc1ccc(OC(F)(F)F)cc1 [FCCP, carbonyl cyanide p-(trifluoromethoxy)phenyl-hydrazone] the “further Ca^2+ release on addition of uncoupler after diamide” value ([2]; FCCP 0.1 micromolar after 500 micromolar diamide, no CsA) was “no further release of Ca^2+ from the mitochondria”, the “Ca^2+ release on addition of uncoupler in the presence of CsA and diamide” value ([2]; FCCP after diamide with 10 micromolar CsA) was “Ca^2+ released from the mitochondria” and the “release of sequestered Ca^2+ from mitochondria after addition of the agent” value (Ca^2+ uniporter [3]; added about 3 min after first 12 micromolar Ca^2+ pulse, thapsigargin present) was “caused the release of Ca^2+ from mitochondria into the cytosol”. The “mitochondrial uptake of the second Ca^2+ pulse” value (Ca^2+ uniporter [3]) was “could not sequester the added Ca^2+”, the “further Ca^2+ release on addition of uncoupler after diamide” value ([4]; FCCP 0.1 micromolar after 500 micromolar diamide) was “no increased level of fluorescence” and the “effect on CaUP activity at the lowest concentrations” value (Ca^2+ uniporter [5]; 0.02 or 0.04 uM FCCP, FCCP at 1 min, Ca^2+ pulse at about 4 min, FIG. 10) was “difficult to distinguish from the results obtained when no FCCP was present”. The “fluorescence upon addition of the agent, before the Ca^2+ pulse” value (Ca^2+ uniporter [5]; FCCP added at t=1 min to cells loaded with 6 micromolar Ca^2+, FIG. 11) was “fluorescence rises slightly” and the “effect of the uncoupler on CaUP activity with decreasing concentration” value (Ca^2+ uniporter [5]; FCCP from 1.0 uM to 0.02 uM, FIG. 10) was “decreases in a corresponding manner”.
In the case of CC(=O)N[C@@H](CS)C(=O)O [N-acetylcysteine], the “uniporter activity profile” value (Ca^2+ uniporter [1]; test compounds 1 micromolar) is reported as “uniporter non-inhibitory profile”.
For CCC(C)N(C)C(=O)c1cc2ccccc2c(-c2ccccc2Cl)n1 (stereo not shown) [PK-11195], the “uniporter activity profile” value (Ca^2+ uniporter [1]; test compounds 1 micromolar) was “uniporter non-inhibitory profile”.
For N=C(N)NC(=O)c1nc(Cl)c(N)nc1N [amiloride], the “uniporter activity profile” value (Ca^2+ uniporter [1]; test compounds 1 micromolar) was “do not possess uniporter inhibitory activity”.
With C=C1[C@@H]2CC[C@H]3[C@]4(C)C[C@H](O[C@@H]5O[C@H](CO)[C@@H](OS(=O)(=O)O)[C@H](OS(=O)(=O)O)[C@H]5OC(=O)CC(C)C)C[C@@H](C(=O)O)[C@H]4CC[C@]3(C2)[C@H]1O [atractyloside] the “fluorescence signal over the 3 minutes” value (Ca^2+ uniporter [1]; test compounds 1 micromolar) was “slight indication of Ca^2+ release” and the “assay profile after the 20 micromolar Ca^2+ pulse” value (“assay profile” for short) [6] was “initial uptake of Ca^2+ into mitochondria with the slow release of the Ca^2+ into the cytosol”.
With CO[C@H](C/C=C\C=C\CC/C=C/C[C@H](C)/C=C/C(=C\C(=O)O)CC(=O)O)/C(C)=C\C=C(/C)C(=O)O [bongkrekic acid] the “assay profile” value [6] was “normal mitochondria sequestration of Ca^2+”.
For CN(CC(=O)O)C(=N)N [creatine], the “uniporter activity profile” value (Ca^2+ uniporter [1]; test compounds 1 micromolar) was “uniporter non-inhibitory profile”.
With O=C1CN(/N=C/c2ccc(-c3ccc([N+](=O)[O-])cc3)o2)C(O)=N1 [dantrolene] the “uniporter activity profile” value (Ca^2+ uniporter [1]; test compounds 1 micromolar) was “uniporter non-inhibitory profile”.
With CN(C)C(=O)/N=N/C(=O)N(C)C [diamide, azodicarboxylic acid bis[dimethylamide]] the “fluorescence upon addition of diamide in the presence of CsA” value ([2]; diamide 500 micromolar with 10 micromolar CsA) was “only a slight increase in fluorescence”, the “time until mitochondria released the sequestered Ca^2+ after diamide addition” value ([2]; diamide 500 micromolar, cells preincubated with 100 micromolar ethacrynic acid, 40 micromolar CaCl2) was no more than 6 min and the “uniporter activity profile” value (Ca^2+ uniporter [1]; test compounds 1 micromolar) was “uniporter non-inhibitory profile”. For the same compound, the “assay profile” value [6] was “sequestering of Ca^2+ by mitochondria after the Ca^2+ pulse”, the “time after which the rate of Ca^2+ release substantially increased” value ([4]; diamide 500 micromolar) was “about 7.5 minutes” and the “Ca^2+ release from mitochondria after diamide addition” value ([4]; diamide 500 micromolar, ethacrynic acid 100 micromolar preincubation 14 minutes, 40 micromolar CaCl2) was “immediately began to slowly release Ca^2+ to the medium”.
COc1ccc([C@@H]2Sc3ccccc3N(CCN(C)C)C(=O)[C@@H]2OC(C)=O)cc1 [diltiazem] was tested, and the “uniporter activity profile” value (Ca^2+ uniporter [1]; test compounds 1 micromolar) was “do not possess uniporter inhibitory activity”.
For COc1ccc(Cl)cc1C(=O)NCCc1ccc(S(=O)(=O)NC(=O)NC2CCCCC2)cc1 [glyburide], the “uniporter activity profile” value (Ca^2+ uniporter [1]; test compounds 1 micromolar) was “uniporter non-inhibitory profile”.
C[C@H](CCC(=O)O)C[C@H](C)C[C@H](C)C(=O)/C=C(\O)[C@H](C)C[C@H](C)C/C=C/[C@@H](C)[C@@H](O)[C@@H](C)[C@@H](O)C[C@@H]1CC[C@@](C)([C@H]2CC[C@@](C)([C@@H](C)O)O2)O1 [ionomycin] was tested, and the “fluorescence signal over the 3 minutes” value (Ca^2+ uniporter [1]; test compounds 1 micromolar) was “release Ca^2+ from cell stores” and the “uniporter activity profile” value (Ca^2+ uniporter [1]; test compounds 1 micromolar) was “prevent Ca^2+ uptake and retention by the mitochondria”.
In the case of CN1CCN(CCCN2c3ccccc3Sc3ccc(C(F)(F)F)cc32)CC1 [trifluoroperazine], the “uniporter activity profile” value (Ca^2+ uniporter [1]; test compounds 1 micromolar) is reported as “do not possess uniporter inhibitory activity”.
Ru360 was tested, and the “mitochondrial uptake of the second Ca^2+ pulse” value (Ca^2+ uniporter [3]) was “prevented the uptake of Ca^2+ by the Ca Uniporter” and the “uniporter activity profile” value (Ca^2+ uniporter [1]; Ru360 10 micromolar) was “no uptake of Ca^2+ by the uniporter”.
